In patent publication US20250129430A1, “HIGH ATP-AFFINITY PROTEIN AS THERAPEUTIC TARGET FOR INTRACTABLE CANCER MOLECULAR SUBTYPES AND INHIBITOR THEREOF” (VeraVerse Co., Ltd., priority 2021, published 2025):

Legend:
Assay type in all cases: cell-based, human
MKN74 = assay: Cell viability drug screen, 12-point dose-response AUC; conditions: MKN74 cells; 72 hours; 12-point dose-response
Summary of the method: (§1)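 Each cell line receives a twelve-point half-log titration of drug beginning 24 h after plating 5×10^3 cells per well. Following 72 h culture at 37 °C, luminescent signal is recorded and expressed versus vehicle. AUC is derived by the trapezoidal method.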

SNU620 = assay: as above; conditions: SNU620 cells; 72 hours; 12-point dose-response
Summary of the method: as §1

KATO3 = assay: as above; conditions: KATO3 cells; 72 hours; 12-point dose-response
Summary of the method: as §1

SNU16 = assay: as above; conditions: SNU16 cells; 72 hours; 12-point dose-response
Summary of the method: as §1

SK4 = assay: as above; conditions: SK4 cells; 72 hours; 12-point dose-response
Summary of the method: as §1

SNU216 = assay: as above; conditions: SNU216 cells; 72 hours; 12-point dose-response
Summary of the method: as §1

OCUM1 = assay: as above; conditions: OCUM1 cells; 72 hours; 12-point dose-response
Summary of the method: as §1

MKN1 = assay: as above; conditions: MKN1 cells; 72 hours; 12-point dose-response
Summary of the method: as §1

NCC24 = assay: as above; conditions: NCC24 cells; 72 hours; 12-point dose-response
Summary of the method: as §1

AGS = assay: as above; conditions: AGS cells; 72 hours; 12-point dose-response
Summary of the method: as §1

SNU719 = assay: as above; conditions: SNU719 cells; 72 hours; 12-point dose-response
Summary of the method: as §1

NCI_N87 = assay: as above; conditions: NCI_N87 cells; 72 hours; 12-point dose-response
Summary of the method: as §1

SNU484 = assay: as above; conditions: SNU484 cells; 72 hours; 12-point dose-response
Summary of the method: as §1

NCC20 = assay: as above; conditions: NCC20 cells; 72 hours; 12-point dose-response
Summary of the method: as §1

SNU1 = assay: as above; conditions: SNU1 cells; 72 hours; 12-point dose-response
Summary of the method: as §1

NCC59 = assay: as above; conditions: NCC59 cells; 72 hours; 12-point dose-response
Summary of the method: as §1

MKN28 = assay: as above; conditions: MKN28 cells; 72 hours; 12-point dose-response
Summary of the method: as §1

SNU1967 = assay: as above; conditions: SNU1967 cells; 72 hours; 12-point dose-response
Summary of the method: as §1

SNU668 = assay: as above; conditions: SNU668 cells; 72 hours; 12-point dose-response
Summary of the method: as §1

SNU638 = assay: as above; conditions: SNU638 cells; 72 hours; 12-point dose-response
Summary of the method: as §1

YCC11 = assay: as above; conditions: YCC11 cells; 72 hours; 12-point dose-response
Summary of the method: as §1

YCC2 = assay: as above; conditions: YCC2 cells; 72 hours; 12-point dose-response
Summary of the method: as §1

YCC3 = assay: as above; conditions: YCC3 cells; 72 hours; 12-point dose-response
Summary of the method: as §1

SNU1750 = assay: as above; conditions: SNU1750 cells; 72 hours; 12-point dose-response
Summary of the method: as §1

Hs746T = assay: as above; conditions: Hs746T cells; 72 hours; 12-point dose-response
Summary of the method: as §1

NCC19 = assay: as above; conditions: NCC19 cells; 72 hours; 12-point dose-response
Summary of the method: as §1

SNU601 = assay: as above; conditions: SNU601 cells; 72 hours; 12-point dose-response
Summary of the method: as §1

MKN45 = assay: as above; conditions: MKN45 cells; 72 hours; 12-point dose-response
Summary of the method: as §1

FU97 = assay: as above; conditions: FU97 cells; 72 hours; 12-point dose-response
Summary of the method: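 Trapezoidal AUC of a 12-point, DMSO-normalized dose-response curve. Luminescent viability was measured after 72 h of exposure at 37° C to half-log serial dilutions (0.5% DMSO control), dosed 24 h after plating FU97 cells at 5×10^3 per well.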

[1] = test system: SEM-type gastric cancer cell line; assay: Cell viability drug screen, AUC summary over SEM-type lines
Summary of the method: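 Seven EMT gastric cancer lines seeded 24 h, then treated with compound in half-log 12-point dilution series (0.5% DMSO) for 72 h at 37 °C. Viability measured by luminescence, normalized to DMSO control; AUC of each 12-point dose–response curve calculated by trapezoidal method.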

[2] = test system: non-SEM-type gastric cancer cell line; assay: Cell viability drug screen, AUC summary over non-SEM-type lines; conditions: in the non-SEM-type gastric cancer cell line

COCCn1c2c([n+](Cc3cnccn3)c1C)C(=O)c1ccccc1C2=O [YM155]
area under the viability curve (AUC), normalized (MKN74): −1.305
area under the viability curve (AUC), normalized (SNU620): 1.29
area under the viability curve (AUC), normalized (KATO3): −0.3081
area under the viability curve (AUC), normalized (SNU16): 2.497
area under the viability curve (AUC), normalized (SK4): −1.314
area under the viability curve (AUC), normalized (SNU216): 0.09958
area under the viability curve (AUC), normalized (OCUM1): 1.685
area under the viability curve (AUC), normalized (MKN1): −2.0115
area under the viability curve (AUC), normalized (NCC24): −0.6903
area under the viability curve (AUC), normalized (AGS): −1.512
area under the viability curve (AUC), normalized (SNU719): 3.789
area under the viability curve (AUC), normalized (NCI_N87): 0.4168
area under the viability curve (AUC), normalized (SNU484): −2.56
area under the viability curve (AUC), normalized (NCC20): 0
area under the viability curve (AUC), normalized (SNU1): 1.212
area under the viability curve (AUC), normalized (NCC59): 0.1386
area under the viability curve (AUC), normalized (MKN28): −1.021
area under the viability curve (AUC), normalized (SNU1967): −0.2044
area under the viability curve (AUC), normalized (SNU668): −0.2961
area under the viability curve (AUC), normalized (SNU638): 0.5099
area under the viability curve (AUC), normalized (YCC11): −1.419
area under the viability curve (AUC), normalized (YCC2): −0.4228
area under the viability curve (AUC), normalized (YCC3): 1.325
area under the viability curve (AUC), normalized (SNU1750): −2.624
area under the viability curve (AUC), normalized (Hs746T): −1.376
area under the viability curve (AUC), normalized (NCC19): 3.608
area under the viability curve (AUC), normalized (SNU601): 1.661
area under the viability curve (AUC), normalized (MKN45): 0.6792
area under the viability curve (AUC), normalized (FU97): 1.301
normalized viability AUC [1]: negative
AUC value [2]: high
